Three compounds from patent publication US11357734B2, “Pharmaceutical granulations of water-soluble active pharmaceutical ingredients” (XWPHARMA LTD., priority 2020, dated 2022) can be followed below.

Common to all, as to format: physicochemical
A short description of series [1]: Particle size distribution by laser diffraction. The text has this:
The parameter D90 refers to the point in the size distribution of a sample, up to and including which, 90% of the total volume of material in the sample is contained. For example for a D90 of 400 μm, 90% of the sample volume has a size of 400 μm or less. D50 is the size below which 50% of the total volume of material in the sample is contained. Similarly, D10 refers to the size below which 10% of the total volume of material in the sample is contained. The volume distribution of the sample can be determined by laser diffraction or by sieve analysis.
A particle size distribution can be determined by laser diffraction or by sieve analysis.
FIGS. 15 and 16 show a particle size distribution of as-crystallized active pharmaceutical ingredient and jet-milled active pharmaceutical ingredient, respectively, as determined by laser diffraction. The PSD of the as-crystallized active pharmaceutical ingredient was characterized by a D10 of 11.8 μm, a D50 of 34.0 μm, and a D90 of 72.3 μm. The PSD of the jet-milled active pharmaceutical ingredient was characterized by a D10 of 7.8 μm, a D50 of 16.1 μm, and a D90 of 21.5 μm.

A short description of series [2]: Bulk density (USP 616, Method 1; bulk density cylinder). The text has this:
Bulk density can be determined according to USP 616, Method 1.
Bulk density can be determined using a bulk density cylinder.

The nature of another series: Hausner Ratio (USP 1174). Conditions: active pharmaceutical ingredient used in Example 13. The text has this: The Hausner Ratio can be determined according to USP 1174.
Series [3] in a line: Tapped bulk density (USP 616). Conditions: active pharmaceutical ingredient used in Example 13. The text has this:
Tapped bulk density can be determined according to USP 616.

Series [4] is described as follows: Specific surface area by laser diffraction. The method, then:
Specific surface area can be determined by laser diffraction.
The specific surface area distributions of as-crystallized active pharmaceutical ingredient and jet-milled active pharmaceutical ingredient was determined by laser diffraction. […] In other samples, the jet milled active pharmaceutical ingredient was characterized by a specific surface area of 1174 m^2/kg.

[5] abbreviates: FIGS. 15 and 16, laser diffraction, listed as as-crystallized active pharmaceutical ingredient.
The mark [6] stands for this setting: active pharmaceutical ingredient used in Example 13.
Where [7] appears, read: FIGS. 15 and 16, laser diffraction, listed as jet-milled active pharmaceutical ingredient.

As for `CC(C)[C@H](N)C(=O)OCCCC(=O)O` [As-Crystallized, 4-((L-valyl)oxy)butanoic acid], in series [1] (setting [5]), the “PSD D10” value turned out to be 11.8 μm, the “PSD D50” value turned out to be 34.0 μm and the “PSD D90” value was determined as 72.3 μm. In series [1] (setting [6]), the “PSD D10” value is on record as 12 μm, the “PSD D50” value is 34 μm and the “PSD D90” value is listed as 71 μm. Besides, in series [2] (setting [6]), the “API Bulk Density” value came out at 0.20 g/mL. Further, the “Hausner Ratio” value in “Hausner Ratio (USP 1174)” is reported as 1.85. The “API Tapped Bulk Density” value in series [3] was 0.38 g/mL. For the same compound, in series [4] (setting [6]), the “specific surface area” value came to 291 m^2/kg. This compound also had a specific surface area in series [4] (laser diffraction, listed as as-crystallized active pharmaceutical ingredient) of 291 m^2/kg.

As to `CC(C)[C@H](N)C(=O)OCCCC(=O)O` [Jet-Milled, 4-((L-valyl)oxy)butanoic acid], the “PSD D10” value in series [1] (setting [7]) amounted to 7.8 μm; in series [1] (setting [6]) it was 8 μm. For the same compound, the “PSD D50” value in series [1] (setting [7]) amounted to 16.1 μm; in series [1] (setting [6]) it was 16 μm. The “PSD D90” value in series [1] (setting [7]) was 21.5 μm; in series [1] (setting [6]) it was 28 μm. For the same compound, the “API Bulk Density” value in series [2] (Jet Milled API used for granulation (13)) and in series [2] (setting [6]) was 0.12 g/mL throughout. The “Hausner Ratio” value in “Hausner Ratio (USP 1174)” is recorded as 1.700. For the same compound, the “API Tapped Bulk Density” value in series [3] is reported as 0.20 g/mL. Further, the “specific surface area” value in series [4] (setting [6]) amounted to 478 m^2/kg; in series [4] (in other samples) it was 1174 m^2/kg; in series [4] (laser diffraction, listed as jet-milled active pharmaceutical ingredient), 478 m^2/kg.

Turning to `CC(C)[C@H](N)C(=O)OCCCC(=O)O` [active pharmaceutical ingredient, 4-((L-valyl)oxy)butanoic acid], the bulk density amounted to 0.263 g/mL in series [2] (active pharmaceutical ingredient of Example 9, before Comil) and 0.15 g/mL in series [2] (active pharmaceutical ingredient used in Examples 1-6).
